In article PMC4248674 (Arthritis & rheumatology (Hoboken, N.J.), 2014) one finds IC50 data, which are given here for five molecules.

Square brackets hold non-standard residues; d marks the D form. Peptide text beside a SMILES is read from it. Cit = NC(=O)NCCC[C@H](N)C(=O)O

In this assay the target is HLA-DR0401 protein (Homo sapiens, UniProt P01903+P01911, A100K/A169T/F76Y/I96L/K127E/L162R/M171V/N62H/P40V/Q125Y/R42H/S133A/S149N/S66Y/V115G/V209L/W38E). Briefly: Peptide competition binding assay against biotinylated HA306–318 on HLA-DR0401.

As for `C[C@H](NC(=O)[C@H](C)NC(=O)[C@H](CCCNC(N)=O)NC(=O)[C@H](C)NC(=O)[C@@H]1CCCN1C(=O)[C@H](CCCNC(N)=O)NC(=O)[C@H](C)NC(=O)[C@H](CCCNC(=N)N)NC(=O)[C@H](Cc1ccc(O)cc1)NC(=O)CN)C(=O)N[C@@H](C)C(=O)N[C@H](C(=O)O)[C@@H](C)O` [Cit-Fib 1] (H-GYRA[Cit]PA[Cit]AAAT-OH), the 50% inhibitory concentration (IC50) (usually the concentration that gives 50% inhibition) was found to be 8.2 µM.

`CC(C)C[C@H](NC(=O)[C@H](CCCNC(N)=O)NC(=O)[C@@H](NC(=O)[C@H](C)NC(=O)[C@H](CO)NC(=O)[C@H](CO)NC(=O)[C@H](CCCNC(N)=O)NC(=O)[C@@H](NC(=O)[C@H](C)NC(=O)[C@H](Cc1ccc(O)cc1)NC(=O)[C@@H](NC(=O)CN)C(C)C)[C@@H](C)O)C(C)C)C(=O)N[C@@H](CCCNC(N)=O)C(=O)N[C@@H](CO)C(=O)N[C@@H](CO)C(=O)N[C@H](C(=O)N1CCC[C@H]1C(=O)NCC(=O)N[C@H](C(=O)N[C@@H](CCCNC(=N)N)C(=O)O)C(C)C)C(C)C` [Cit-Vim 1] (H-GVYAT[Cit]SSAV[Cit]L[Cit]SSVPGVR-OH) displayed an IC50 of 1.3 µM.

As for `CC(C)C[C@H](NC(=O)[C@H](CO)NC(=O)[C@H](CC(=O)O)NC(=O)[C@H](CC(C)C)NC(=O)[C@H](CC(N)=O)NC(=O)[C@@H](NC(=O)[C@H](CCC(=O)O)NC(=O)[C@H](CCCNC(N)=O)NC(=O)[C@H](CC(C)C)NC(=O)[C@H](CC(N)=O)NC(=O)[C@H](CC(C)C)NC(=O)[C@H](CO)NC(=O)[C@@H](N)CO)[C@@H](C)O)C(=O)O` [Cit-Vim 2], the IC50 stood at 14 µM.

In turn, `CC[C@H](C)[C@H](NC(=O)[C@H](CCCNC(N)=O)NC(=O)[C@@H](N)CCCCN)C(=O)N[C@@H](C)C(=O)N[C@@H](CCCCN)C(=O)N[C@@H](C)C(=O)N[C@H](C(=O)N[C@@H](CC(N)=O)C(=O)N[C@@H](CCC(=O)O)C(=O)N[C@@H](CCCCN)C(=O)N[C@@H](CO)C(=O)N[C@@H](CS)C(=O)N[C@@H](CC(N)=O)C(=O)N[C@@H](CS)C(=O)N[C@@H](CC(C)C)C(=O)O)C(C)C` [Cit-α-enolase 4] (H-K[Cit]IAKAVNEKSCNCL-OH) returned an IC50 of 1.9 µM.

Consider `CC[C@H](C)[C@H](NC(=O)[C@H](CCCNC(=N)N)NC(=O)[C@@H](N)CCCCN)C(=O)N[C@@H](C)C(=O)N[C@@H](CCCCN)C(=O)N[C@@H](C)C(=O)N[C@H](C(=O)N[C@@H](CC(N)=O)C(=O)N[C@@H](CCC(=O)O)C(=O)N[C@@H](CCCCN)C(=O)N[C@@H](CO)C(=O)N[C@@H](CS)C(=O)N[C@@H](CC(N)=O)C(=O)N[C@@H](CS)C(=O)N[C@@H](CC(C)C)C(=O)O)C(C)C` [α-enolase 4] (H-KRIAKAVNEKSCNCL-OH), for which the IC50 is 1.7 µM.
